Literature values, collected in patent US11260068B2, “Long-circulating liposome modified with c(RGD-ACP-K)” (BEIJING GREATSUN BIO-PHARM. TECH. CO., LTD, priority 2017, dated 2022).
Entries after “also recorded” stand apart in the source; their conditions may differ. Starred links: 1 amine or outer side, 2 acyl side, 3 side chain; linkers in the order of their positions; H or OH if unused. Non-standard residues stand in square brackets, D forms with d. Residues, ends and D or L forms follow the SMILES beside them. X1 = O=C(C1CCC(N[*:1])C1)[*:2]

Target: T1, integrin αvβ3 on the surface of U87MG cells (Homo sapiens, UniProt P05106+P06756)
T1 construct: U87MG glioblastoma cells expressing integrin αvβ3; endogenous in cells; host or cells: U87MG glioblastoma cells
T1 sequence (P06756 31-889 limits assumed): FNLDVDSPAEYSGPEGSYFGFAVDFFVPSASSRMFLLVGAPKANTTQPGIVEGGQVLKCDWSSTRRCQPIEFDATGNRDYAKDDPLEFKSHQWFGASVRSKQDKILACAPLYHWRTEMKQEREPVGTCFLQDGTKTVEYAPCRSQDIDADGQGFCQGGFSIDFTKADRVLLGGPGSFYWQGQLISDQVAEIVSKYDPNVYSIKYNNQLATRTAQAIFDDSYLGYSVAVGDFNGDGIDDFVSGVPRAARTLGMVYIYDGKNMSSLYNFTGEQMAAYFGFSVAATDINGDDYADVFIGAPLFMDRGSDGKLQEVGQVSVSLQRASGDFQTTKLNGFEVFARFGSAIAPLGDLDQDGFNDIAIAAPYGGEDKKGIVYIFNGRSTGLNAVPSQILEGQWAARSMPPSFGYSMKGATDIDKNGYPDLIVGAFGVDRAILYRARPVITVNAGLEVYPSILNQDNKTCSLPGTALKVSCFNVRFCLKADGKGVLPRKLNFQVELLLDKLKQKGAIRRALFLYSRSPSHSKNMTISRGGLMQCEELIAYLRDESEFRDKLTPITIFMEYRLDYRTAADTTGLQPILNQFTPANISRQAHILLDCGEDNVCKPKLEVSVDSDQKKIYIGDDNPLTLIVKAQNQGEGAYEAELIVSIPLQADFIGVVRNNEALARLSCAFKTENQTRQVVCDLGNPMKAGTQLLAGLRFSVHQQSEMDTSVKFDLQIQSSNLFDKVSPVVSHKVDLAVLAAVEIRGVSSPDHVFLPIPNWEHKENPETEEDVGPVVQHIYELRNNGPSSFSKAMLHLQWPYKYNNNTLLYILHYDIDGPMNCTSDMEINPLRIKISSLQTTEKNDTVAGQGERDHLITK
T1 sequence (P06756 891-1048 partner limits assumed): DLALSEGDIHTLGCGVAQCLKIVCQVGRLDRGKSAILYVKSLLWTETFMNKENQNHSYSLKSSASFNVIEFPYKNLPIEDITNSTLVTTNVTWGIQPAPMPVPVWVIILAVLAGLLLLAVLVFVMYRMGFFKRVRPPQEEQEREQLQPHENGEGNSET
T1 sequence (P05106 27-788): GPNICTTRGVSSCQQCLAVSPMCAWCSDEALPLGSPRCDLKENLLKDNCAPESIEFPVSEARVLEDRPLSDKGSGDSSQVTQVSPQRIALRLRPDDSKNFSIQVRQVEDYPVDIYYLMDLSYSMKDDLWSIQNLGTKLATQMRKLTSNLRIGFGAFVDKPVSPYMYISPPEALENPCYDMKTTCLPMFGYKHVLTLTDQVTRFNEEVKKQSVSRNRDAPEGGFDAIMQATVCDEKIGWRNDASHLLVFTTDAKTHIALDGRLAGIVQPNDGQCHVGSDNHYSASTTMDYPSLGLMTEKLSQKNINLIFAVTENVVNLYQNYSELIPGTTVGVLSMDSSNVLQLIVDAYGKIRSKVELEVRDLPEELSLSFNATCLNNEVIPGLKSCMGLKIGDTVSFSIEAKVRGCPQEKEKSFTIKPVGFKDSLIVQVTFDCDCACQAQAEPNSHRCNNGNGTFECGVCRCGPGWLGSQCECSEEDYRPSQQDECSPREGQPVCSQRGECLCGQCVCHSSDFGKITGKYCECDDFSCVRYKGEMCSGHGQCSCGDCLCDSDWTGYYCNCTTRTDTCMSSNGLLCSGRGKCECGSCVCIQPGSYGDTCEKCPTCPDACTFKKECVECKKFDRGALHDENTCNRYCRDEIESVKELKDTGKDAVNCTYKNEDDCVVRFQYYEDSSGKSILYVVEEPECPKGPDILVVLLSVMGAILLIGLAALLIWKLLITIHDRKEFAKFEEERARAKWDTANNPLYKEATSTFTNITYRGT
Details: reference c(RGDyK)

| Compound | binding to integrin αvβ3 on the surface of U87MG cells |
| --- | --- |
| N=C(N)NCCC[C@@H]1NC(=O)[C@H](CCCCN)NC(=O)C2CCC(C2)NC(=O)[C@H](CC(=O)O)NC(=O)CNC1=O (stereo partly drawn) [c(RGD-ACP-K), cyclo[RGD-(1S,3R)-3-aminocyclopentane-1-carboxylic acid]] (cyclo(RGD[X1]K)) | superior to that of the cyclic peptide c(RGDyK); also recorded: significantly higher than that of c(RGD-ACH-K) |
| cyclic [c(RGD-ACH-K), cyclic [RGD-(1S,3R)-3-aminocyclohexanecarboxylic acid]] | superior to that of the cyclic peptide c(RGDyK) |
